Measurements reported in ChEMBL document CHEMBL1201862, “PubChem BioAssay data set” (2004).
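Test compounds were applied to cells in 96-well plates for 48 hours at 5 doses. The concentration for 50% growth inhibition is given as GI50.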 Activity calls are given as the source filed them. Rule as the data show it: active = GI50 up to about 1.1 µM and inactive = higher.

Assays:
Test in all cases: NCI anticancer screen, dose series, 48 h
TK-10 = tested on: TK-10
OVCAR-3 = tested on: OVCAR-3
NCI-H226 = tested on: NCI-H226
SF-539 = tested on: SF-539
SK-MEL-5 = tested on: SK-MEL-5
HOP-62 = tested on: HOP-62
NCI-H522 = tested on: NCI-H522
HT-29 = tested on: HT-29
COLO 205 = tested on: COLO 205
SNB-19 = tested on: SNB-19
NCI/ADR-RES = tested on: NCI/ADR-RES
MDA-MB-435 = tested on: MDA-MB-435
SK-MEL-28 = tested on: SK-MEL-28
UACC-257 = tested on: UACC-257
MOLT-4 = tested on: MOLT-4
HCC 2998 = tested on: HCC 2998
A549 = tested on: A549
HL-60 = tested on: HL-60
DU-145 = tested on: DU-145
KM12 = tested on: KM12
MCF7 = tested on: MCF7
PC-3 = tested on: PC-3
SNB-75 = tested on: SNB-75
UACC-62 = tested on: UACC-62
U-251 = tested on: U-251
OVCAR-5 = tested on: OVCAR-5
SK-MEL-2 = tested on: SK-MEL-2
NCI-H460 = tested on: NCI-H460
SW-620 = tested on: SW-620
BT-549 = tested on: BT-549
HCT-15 = tested on: HCT-15
NCI-H23 = tested on: NCI-H23
ACHN = tested on: ACHN
IGROV-1 = tested on: IGROV-1
HOP-92 = tested on: HOP-92
A498 = tested on: A498
EKVX = tested on: EKVX
SF-268 = tested on: SF-268
UO-31 = tested on: UO-31
OVCAR-4 = tested on: OVCAR-4
Hs-578T = tested on: Hs-578T
CCRF-CEM = tested on: CCRF-CEM
OVCAR-8 = tested on: OVCAR-8
LOX IMVI = tested on: LOX IMVI
CAKI-1 = tested on: CAKI-1
Malme-3M = tested on: Malme-3M
T47D = tested on: T47D
RXF 393 = tested on: RXF 393
MDA-MB-231 = tested on: MDA-MB-231
M14 = tested on: M14
HCT-116 = tested on: HCT-116
SN12C = tested on: SN12C
SF-295 = tested on: SF-295
MDA-N = tested on: MDA-N
SR = tested on: SR
786-0 = tested on: 786-0
K562 = tested on: K562
SK-OV-3 = tested on: SK-OV-3

Measured: GI50

O=C(CC(=O)N1N=C(N2CCCCC2)CC1c1ccccc1)Nc1ccccc1 (centres undefined)
> 100 µM: HCT-15
inactive: TK-10 > 100 µM | OVCAR-3 > 100 µM | NCI-H226 > 100 µM | SF-539 > 100 µM | SK-MEL-5 > 100 µM | HOP-62 > 100 µM | NCI-H522 > 100 µM | HT-29 > 100 µM | COLO 205 > 100 µM | SNB-19 > 100 µM | NCI/ADR-RES > 100 µM | MDA-MB-435 > 100 µM | SK-MEL-28 > 100 µM | UACC-257 > 100 µM | MOLT-4 > 100 µM | HCC 2998 > 100 µM | A549 > 100 µM | HL-60 > 100 µM | DU-145 > 100 µM | KM12 > 100 µM | MCF7 > 100 µM | PC-3 > 100 µM | SNB-75 > 100 µM | UACC-62 > 100 µM | U-251 > 100 µM | OVCAR-5 > 100 µM | SK-MEL-2 > 100 µM | NCI-H460 > 100 µM | SW-620 > 100 µM | BT-549 > 100 µM | NCI-H23 > 100 µM | ACHN > 100 µM | IGROV-1 > 100 µM | HOP-92 91 µM | A498 > 100 µM | EKVX > 100 µM | SF-268 > 100 µM | UO-31 > 100 µM | OVCAR-4 > 100 µM | Hs-578T > 100 µM | CCRF-CEM > 100 µM | OVCAR-8 > 100 µM | LOX IMVI > 100 µM | CAKI-1 > 100 µM | Malme-3M > 100 µM | T47D > 100 µM | RXF 393 > 100 µM | MDA-MB-231 > 100 µM | M14 > 100 µM | HCT-116 > 100 µM | SN12C > 100 µM | SF-295 > 100 µM | MDA-N > 100 µM | SR > 100 µM | 786-0 > 100 µM

C/C=C/[C@@H]1[C@H]2C(=O)[C@]3(Cl)[C@@H](/C=C/C)[C@@H]3C(=O)[C@@]12Cl
> 100 µM: HCT-15
inactive: TK-10 > 100 µM | OVCAR-3 > 100 µM | NCI-H226 > 100 µM | SF-539 > 100 µM | SK-MEL-5 > 100 µM | HOP-62 33.7 µM | NCI-H522 > 100 µM | HT-29 > 100 µM | COLO 205 > 100 µM | SNB-19 > 100 µM | NCI/ADR-RES > 100 µM | MDA-MB-435 > 100 µM | SK-MEL-28 > 100 µM | UACC-257 > 100 µM | MOLT-4 7.16 µM | HCC 2998 > 100 µM | K562 > 100 µM | SK-OV-3 > 100 µM | A549 > 100 µM | HL-60 > 100 µM | DU-145 > 100 µM | KM12 > 100 µM | MCF7 > 100 µM | PC-3 > 100 µM | SNB-75 53.3 µM | UACC-62 > 100 µM | U-251 85.3 µM | OVCAR-5 > 100 µM | SK-MEL-2 > 100 µM | NCI-H460 > 100 µM | SW-620 > 100 µM | BT-549 > 100 µM | NCI-H23 > 100 µM | ACHN > 100 µM | IGROV-1 > 100 µM | HOP-92 94 µM | A498 > 100 µM | EKVX > 100 µM | SF-268 > 100 µM | UO-31 > 100 µM | OVCAR-4 > 100 µM | Hs-578T 35.2 µM | CCRF-CEM 52 µM | OVCAR-8 > 100 µM | LOX IMVI > 100 µM | CAKI-1 > 100 µM | Malme-3M > 100 µM | T47D > 100 µM | RXF 393 55.3 µM | MDA-MB-231 94.2 µM | M14 > 100 µM | HCT-116 > 100 µM | SN12C > 100 µM | SF-295 > 100 µM | MDA-N > 100 µM | SR > 100 µM | 786-0 46.8 µM
